Data on eight compounds can be found in patent publication US10653784B2, “Hydrophobic highly branched carbohydrate polymers” (Purdue Research Foundation, priority 2015, dated 2020).

The nature of data set [1]: Solubility of docetaxel in HBSS (centrifugation, HPLC of supernatant). It is filed as physicochemical. To be noted: Hank's Balanced Salt Solution (HBSS), aqueous buffer, thermodynamic from solid, 20° C., 10 min vortex, API/excipient 1/3, total dispersed API 2,500 μg/mL, 16,000 g 10 min, read-out: water solubility of docetaxel (concentration in supernatant). On the procedure: FIG. 5 provides a graph showing the solubility of docetaxel when incorporated with OHPP, HPMCAS, and Soluplus, as compared with that of docetaxel alone. The ratio between docetaxel and excipient was 1/3, with total dispersed docetaxel of 2,500 μg/mL in HBSS buffer (20° C.). The mixing time was 10 min before subjecting the dispersion to centrifugation to collect supernatant for docetaxel quantification.
Thereafter, the dispersions were centrifuged at 16,000 g for 10 min, and the supernatants were collected for docetaxel quantification using HPLC. The concentration of docetaxel in the supernatant was considered as its water solubility.

Data set [2] in a line: Solubility of paclitaxel in HBSS (centrifugation, HPLC of supernatant). It is filed as physicochemical. The settings on record: Hank's Balanced Salt Solution (HBSS), aqueous buffer, thermodynamic from solid, 37° C., 2 h mixing, API/excipient 1/3, total dispersed API 2,500 μg/mL, 16,000 g 10 min, read-out: water solubility of paclitaxel (concentration in supernatant). On the procedure:
The mixing time was 2 h before subjecting the dispersion to centrifugation to collect supernatant for paclitaxel quantification.
Thereafter, the dispersions were centrifuged at 16,000 g for 10 min, and the supernatants were collected for paclitaxel quantification using HPLC. The concentration of paclitaxel in the supernatant was considered as its water solubility.

Data set [3] in a line: Solubility of itraconazole in HBSS (centrifugation, HPLC of supernatant). It is filed as physicochemical. To be noted: Hank's Balanced Salt Solution (HBSS), aqueous buffer, thermodynamic from solid, 20° C., 10 min vortex, API/excipient 1/3, total dispersed API 2,500 μg/mL, 16,000 g 10 min, read-out: water solubility of itraconazole (concentration in supernatant). On the procedure: FIG. 6 provides a graph showing the solubility of itraconazole when incorporated with OHPP, HPMCAS, and Soluplus, as compared with that of itraconazole alone. The ratio between itraconazole and excipient was 1/3, with total dispersed itraconazole of 2,500 μg/mL in HBSS buffer (20° C.). The mixing time was 10 min before subjecting the dispersion to centrifugation to collect supernatant for itraconazole quantification.
Thereafter, the dispersions were centrifuged at 16,000 g for 10 min, and the supernatants were collected for itraconazole quantification using HPLC. The concentration of itraconazole in the supernatant was considered as its water solubility.

Data set [4] in a line: Solubility of niclosamide in HBSS (centrifugation, HPLC of supernatant). To be noted: Hank's Balanced Salt Solution (HBSS), aqueous buffer, thermodynamic from solid, 37° C., 2 h mixing, API/excipient 1/3, total dispersed API 2,500 μg/mL, 16,000 g 10 min, read-out: water solubility of niclosamide (concentration in supernatant). Type of data set: physicochemical. The protocol:
FIG. 2 provides a graph showing the solubility of niclosamide when incorporated with OHPP, HPMCAS, and Soluplus (Soluplus®, BASF), as compared with that of niclosamide alone. The ratio between niclosamide and excipient was 1/3, with total dispersed API of 2,500 μg/mL in HBSS buffer (37° C.). The mixing time was 2 h before subjecting the dispersion to centrifugation to collect supernatant for API quantification.
Thereafter, the dispersions were centrifuged at 16,000 g for 10 min, and the supernatants were collected for niclosamide quantification using HPLC. The concentration of niclosamide in the supernatant was considered as its water solubility.

The next data set can be described thus: physchem. It is filed as physicochemical. On the procedure:
FIG. 7 provides a graph showing the solubility of curcumin when incorporated with OHPP, HPMCAS, and Soluplus, as compared with that of curcumin alone. The ratio between curcumin and excipient was 1/9, with total dispersed curcumin of 1,000 μg/mL in HBSS buffer (37° C.). The mixing time was 2 h before subjecting the dispersion to centrifugation to collect supernatant for curcumin quantification.
Thereafter, the dispersions were centrifuged at 16,000 g for 10 min, and the supernatants were collected for curcumin quantification using HPLC. The concentration of curcumin in the supernatant was considered as its water solubility.

A short description of data set [5]: Solubility of celecoxib in HBSS (centrifugation, HPLC of supernatant). Type of data set: physicochemical. To be noted: Hank's Balanced Salt Solution (HBSS), aqueous buffer, thermodynamic from solid, 37° C., 2 h mixing, API/excipient 1/5, total dispersed API 1,000 μg/mL, 16,000 g 10 min, read-out: water solubility of celecoxib (concentration in supernatant). On the procedure: FIG. 8 provides a graph showing the solubility of celecoxib when incorporated with OHPP, HPMCAS, and Soluplus, as compared with that of celecoxib alone. The ratios between celecoxib and each excipient was 1/5, with total dispersed API of 1,000 μg/mL in HBSS buffer (37° C.). The mixing time was 2 h before subjecting the dispersion to centrifugation to collect supernatant for celecoxib quantification. The weight ratio of celecoxib, OHPP, and HPMCAS was 1, 3, and 2 respectively for the Cel-OHPP-HPMCAS preparation.
Thereafter, the dispersions were centrifuged at 16,000 g for 10 min, and the supernatants were collected for celecoxib quantification using HPLC. The concentration of celecoxib in the supernatant was considered as its water solubility.

Data set [6] can be described thus: Solubility of griseofulvin in HBSS (centrifugation, HPLC of supernatant). It is filed as physicochemical. To be noted: Hank's Balanced Salt Solution (HBSS), aqueous buffer, thermodynamic from solid, 37° C., 2 h mixing, API/excipient 1/3, total dispersed API 2,500 μg/mL, 16,000 g 10 min, read-out: water solubility of griseofulvin (concentration in supernatant). The protocol: The mixing time was 2 h before subjecting the dispersion to centrifugation to collect supernatant for griseofulvin quantification.
Thereafter, the dispersions were centrifuged at 16,000 g for 10 min, and the supernatants were collected for griseofulvin quantification using HPLC. The concentration of griseofulvin in the supernatant was considered as its water solubility.

In brackets after ≈: the same amount, converted by molar mass.

Protocol for Caco-2 cell monolayer: Nic-1000 and Nic-100: supernatant from centrifuged dispersion of pure niclosamide in HBSS at dispersing dose of 1000 and 100 μg/mL, respectively. Cel-1000 and Cel-100: supernatant from centrifuged dispersion of pure celecoxib in HBSS at dispersing dose of 1000 and 100 μg/mL, respectively. Nic-OHPP-100: supernatant from centrifuged dispersion of Nic-OHPP in HBSS at dispersing dose of 100 μg/mL (for pure niclosamide). Cel-OHPP-HPMCAS-100: supernatant of Cel-OHPP-HPMCAS dispersed in HBSS buffer at 100 μg/mL.
Caco-2 cells were seeded in the inserts with tissue-culture-treated polyester membranes (Transwells, 0.4 μm pore size, Corning) at a density of 1×10^4 cells/well. After seeding, the medium was changed every other day until the day of the permeation test. All tests were performed on day 21 after seeding. For the test, the culture medium was removed and the cells were washed twice with PBS buffer. The cells were then equilibrated in HBSS for 15 min prior to each study, and then apical and basolateral solution were aspirated.
To measure the apical-to-basolateral permeation of API, 0.5 mL of each test solution was added to the apical compartment, and the basolateral compartment received 1.5 mL HBSS. As a control, reference cells were incubated with 0.5 mL blank HBSS on the apical side, while the basolateral side received 1.5 mL of HBSS. All cultures were incubated in an incubator (5% CO2, 37° C.) for 2 h. After the incubation, the apical and the basolateral solutions were collected respectively and their amounts of API were determined using HPLC.
The loaded dispersions were prepared in two steps: (1) dispersing API-excipient complex solid and API alone in HBSS at the doses of 1000 μg/mL or 100 μg/mL, and (2) subjecting each dispersion to centrifugation (16,000 g, 5 min) to collect supernatant. The supernatants were loaded in the apical compartments of inserts.

With `CC(=O)O[C@@]12CO[C@@H]1C[C@H](O)[C@@]1(C)C(=O)[C@H](O)C3=C(C)[C@@H](OC(=O)[C@H](O)[C@@H](NC(=O)OC(C)(C)C)c4ccccc4)C[C@@](O)([C@@H](OC(=O)c4ccccc4)[C@H]21)C3(C)C` [docetaxel], the solubility at 10 min in data set [1] is approximately 11.1 µg/mL.

As to `CC(=O)O[C@H]1C(=O)[C@@]2(C)[C@H]([C@H](OC(=O)c3ccccc3)[C@]3(O)C[C@H](OC(=O)[C@H](O)[C@@H](NC(=O)c4ccccc4)c4ccccc4)C(C)=C1C3(C)C)[C@]1(OC(C)=O)CO[C@@H]1C[C@@H]2O` [paclitaxel], in data set [2], the solubility at 2 h is approximately 6.2 µg/mL. As for `CCC(C)n1ncn(-c2ccc(N3CCN(c4ccc(OCC5COC(Cn6cncn6)(c6ccc(Cl)cc6Cl)O5)cc4)CC3)cc2)c1=O` (centres unmarked) [itraconazole], in data set [3], the solubility at 10 min was approximately 0.96 µg/mL. Take `O=C(Nc1ccc([N+](=O)[O-])cc1Cl)c1cc(Cl)ccc1O` [niclosamide]: the solubility at 2 h in data set [4] was approximately 13.2 µg/mL. Also, in the data set on Caco-2 cell monolayer, the “permeation of API through Caco-2 monolayer, API alone” value is given as “not sufficient to provide an appreciable permeation”.

In turn, `COc1cc(/C=C/C(=O)CC(=O)/C=C/c2ccc(O)c(OC)c2)ccc1O` [curcumin] had a solubility at 2 h in “physchem” (37 °C, aqueous buffer, thermodynamic from solid) of approximately 7.2 µg/mL (≈ 19.5 µM).

Take `Cc1ccc(-c2cc(C(F)(F)F)nn2-c2ccc(S(N)(=O)=O)cc2)cc1` [celecoxib]: in the data set with Caco-2 cell monolayer, the “permeation of API through Caco-2 monolayer, API alone” value is “not sufficient to provide an appreciable permeation”. The solubility at 2 h in data set [5] is approximately 12.8 µg/mL. As for “octenylsuccinate hydroxypropyl phytoglycogen [OHPP]”, the “increase of the solubility of curcumin in aqueous solution by use of OHPP” value in “physchem” was “at least 100 times”. In the data set with Caco-2 cell monolayer, the “permeation of API through Caco-2 monolayer when OHPP was used” value is “substantially increased”.

As to `COC1=CC(=O)C[C@@H](C)[C@]12Oc1c(Cl)c(OC)cc(OC)c1C2=O` [griseofulvin], in data set [6], the solubility at 2 h was approximately 17.5 µg/mL.
